Reference: patent US20050080120A1, “4-[3,5-bis-(2-hydroxy-phenyl)-[1,2,4]triazol-1-yl]-benzoic acid derivatives for treating an excess of metal in the body” (priority 2001, published 2005)

SMILES: O=C(O)c1ccc(-n2nc(-c3cccc(O)c3O)nc2-c2ccccc2O)cc1 [Example 1, 4-[3-(2,3-Dihydroxy-phenyl)-5-(2-hydroxy-phenyl)-[1,2,4]triazol-1-yl]benzoic Acid]
- melting point: 223 to 226 °C
